In US20230285389A1, “USE OF CSF-1R KINASE INHIBITOR” (Shanghai Runshi Medical Technology Co., Ltd, priority 2020, published 2023):

How the values were obtained:
[1] = system: MC38 subcutaneous xenograft; test: Immune cell subpopulation scan in tumor tissue of MC38 xenograft model; type: in vivo, mouse
Experimental: MC38 cells in good condition were re-suspended to 25 million cells/mL. 200 µL of cell suspension was inoculated subcutaneously in the right armpit of each mouse. When the tumor cells formed subcutaneous xenograft in the mice and grew to an average volume of approximately 100 mm^3, the mice were randomly assigned to the dosing group and the control group. The test compounds were prepared at the desired concentrations and corresponding equal amount of solvent was used as a solvent control. The drugs were administrated orally, and administrated once per day for 24 consecutive days.
During the dosing period, the xenograft volumes of the mice and the weights of the mice were measured every 2-4 days. When the MC38 subcutaneous xenograft from the solvent control group of grew to 700-800 mm^3, the experiment was stopped. Fresh tumors removed from the mice were sheared with scissors into fragments no more than 2 mm^3. The digestive enzyme was prepared according to the instructions of Tumor Dissociation Kit. The tumor tissue mass was re-suspended with 2.5 mL of prepared enzyme solution, and was placed into a gentleMACS™ Dissociator instrument for dissociating the tumor with a selected program. After completion of dissociation, the suspension was filtered with a 70 µM filter screen to obtain a cell suspension. The cell suspension was lysed with an erythrocyte lysing agent for 10 min, centrifuged at 300 g for 5 min, and re-suspended with PBS. Desired amount of cells were taken out after cell counting. The cells were first washed twice with PBS. After washing, each sample was re-suspended with 100 µL of PBS and 0.5 µL of the fluorescent antibody prepared according to the manufacturer’s instructions to distinguish dead and live cells was added. The samples were stained in the dark at 4° C. for 30 min. After 30 min, the samples were washed twice with 1 mL of the running buffer and the tubes were centrifuged at 300 g for 5 min at 4° C. The blocking antibody diluent was prepared by adding 2 µL of blocking antibody TruStain fcX™ (anti-mouse CD16/32) per 100 µL running buffer and was added on the basis of the 100 µL system of each sample. After blocking for 10 min, according to the manufacturer’s instructions, the fluorescent antibody corresponding to the surface protein was added to the samples, and the reactant was allowed for incubation at 4° C. for 30 min. At this step, a single staining control and an FMO control were set. Then, the samples were washed twice with 1 mL of the running buffer, and centrifuged at 300 g for 5 min at 4° C. each time.
If only surface proteins were to be examined, after centrifugation, the samples were re-suspended with 300 µL of PBS and immediately input into machines, or the samples were fixed with 4% paraformaldehyde for 15 min, and centrifuged at 500 g for 7 min. The supernatants were discarded and the pellets were re-suspended with PBS and stored for further machine analysis.
If intracellular factors were to be examined as well, when the supernatants were discarded after centrifugation, 100 µL of re-suspended samples were retained. IC fixation solution in Intracellular Fixation & Permeabilization Buffer Set was added to each sample based on the 100 µL volume. The samples were placed at 4° C. for fixation for 30 min. After the fixation was completed, the samples were centrifuged at 500 g for 7 min. 10×Permeabilization Buffer was prepared into 1×membrane destructive solution with triple distilled water. After centrifugation, 2 mL of 1×membrane destructive solution was added to each sample to re-suspend the samples, and the samples were centrifuged at 500 g for 7 min. The process was repeated twice. 1×membrane destructive solution was used to prepare the intracellular fluorescent antibody as recommended in the instructions for antibody. The cells were re-suspended in a system of 100 µL per well, and placed at 4° C. to stain for 30 min. At this step, a single staining control and an FMO control were set. […]

[2] = system: CSF-1-induced bone marrow-derived macrophages (BMDM); test: CSF-1-induced murine-derived macrophage (BMDM) survival (CCK-8); type: cell-based, BALB/c mice; conditions: Mus musculus, 168 h, read-out: IC50 inhibition of cell survival, BMDM (CSF-1)
Experimental: BALB/c mice (female, 6 weeks old, healthy) were sacrificed. Bone marrow cells were taken from their femurs and tibia, and seeded into a 96-well culture plate at appropriate densities (90 µL per well) after erythrobiasis treatment. 100 ng/mL of CSF-1 factor was added to each well to induce macrophages (Bone marrow-derived macrophages, BMDM), and compounds at various concentrations were added and the plate was allowed for incubation for 7 days. A solvent control group (negative control) was set. After 7 day-exposure of the cells to the compounds, 10 µL of CCK-8 reagent was added to each well. The culture plate was placed in an incubator at 37° C. for 2-4 h, and then was read with a full-wavelength microplate reader setting at the wavelength of 450 nm.

[3] = system: CSF-1-induced human macrophages (PBMC-derived CD14+ monocytes); test: Survival of CSF-1-induced human macrophages from PBMC (CCK-8); type: cell-based; conditions: Homo sapiens, 168 h, read-out: IC50 inhibition of cell survival, PBMC (CSF-1)
Experimental: Cryopreserved human-derived peripheral blood (peripheral blood from healthy donors) mononuclear cells (PBMCs) were taken out of liquid nitrogen for recovery. After recovery, the cells were re-suspended at 50 million/mL with the running buffer and DNAase I was added at a final concentration of 100 µg/mL and the plate was allowed for incubation for 15 min at room temperature. After centrifugation at 300 g for 5 min, the supernatant was discarded. The pellet was re-suspended at 50 million cells/mL with the running buffer, and the suspension was filtered through a 70 µM filter screen into a flow tube. The cells were sorted by using CD14+ monocyte negative selection beads sorting kit from […] company. According to the manufacture’s instructions, the specific experimental procedures were as follows.
After cells were re-suspended at 50 million cells/mL, 50 µL of the cocktail was added to each one mL of samples. The samples were incubated at room temperature for 5 min. The magnetic beads were vortexed for 30 sec, and added to the samples. The samples were incubated for further 5 min. The sample volumes were made up to 2.5 mL. The samples were placed on a magnetic frame ([…], #18000) for 2.5 min. […] The plate was placed in an incubator at 37° C. for 2-4 h, and then was read with an adjustable wavelength microplate reader setting at a wavelength of 450 nm.

[4] = system: CD8+ T cells co-cultured with CSF-1-induced BMDMs; conditions: BMDMs pre-incubated with compound; co-culture 72 h
[5] = each dose group, oral once per day

**Q.** How did the “infiltration of Granzyme B+CD8+ T cells vs solvent control” value ([1]; 10 mg/kg group) turn out when CNC(=O)c1cccc2cc(Oc3ccnc(NC(=O)c4ccc(N5C[C@@H](C)N[C@@H](C)C5)cc4)c3)ccc12 [Compound I] was run?
**A.** Its value is “significantly increased”.

**Q.** And the “infiltration of CD206+ M2-biased macrophages in TAMs” value [1, 5]?
**A.** The value was “further down-regulated”.

**Q.** And the “infiltration of TAMs in tumor tissue vs solvent control” value [1, 5]?
**A.** Its value is “significantly reduced”.

**Q.** And the “infiltration of CD8+ T cells vs solvent control” value ([1]; oral once per day)?
**A.** The value was “no significant change”.

**Q.** And the “infiltration of IFNγ+CD8+ T cells vs solvent control” value ([1]; oral once per day)?
**A.** The value was “no significant change”.

**Q.** What about the “infiltration of Treg cells” value ([1]; oral once per day) of the same compound?
**A.** Its value is “significantly reduced”.

**Q.** And the IC50 [2]?
**A.** Its IC50 is 10.2 ± 0.8 nM.

**Q.** What about the IC50 [3] of the same compound?
**A.** The IC50 was 30.5 ± 5.1 nM.

**Q.** And the “CD8+ T cell proliferation compared to solvent control” value [4]?
**A.** Its value is “substantially increased”.
